Experiments:
Format in all cases: in vivo
[1] = system: beet; assay: Test Example 5: effect on crop by foliage application, plastic box (symbol f); settings: 320 g/ha, 3 weeks after application
In short: (§1)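 In a plastic box 7 cm deep filled with sterilized diluvial soil, seeds of crops and weeds such as Digitaria ciliaris, Avena fatua and Amaranthus retroflexus are sown in spots and covered with about 1.5 cm of soil before greenhouse growth at 25–30° C.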

[2] = system: Echinochloa crus-galli var. crus-galli; assay: Test Example 5: herbicidal effect by foliage application, plastic box (symbol H); settings: 320 g/ha, 3 weeks after application
In short: (§2)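 Visual herbicidal score, taken three weeks post-application, of seedlings sprayed on the foliage with water-diluted emulsion at a predetermined amount; plants were 14 days old, greenhouse-raised at 25° C. to 30° C.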

[3] = system: Abutilon theophrasti; assay: Test Example 4: herbicidal effect by soil treatment (symbol M); settings: for M (Abutilon theophrasti) herbicidal effect grade: application herbicide amount 320 g/ha; for M: Abutilon theophrasti, herbicidal effect grade: 320 g/ha
In short: (§3)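 Seeds were sown in sterilized diluvial soil, covered with about 1.5 cm of soil, and the soil surface was sprayed with a water-diluted emulsion of the compound at a predetermined rate. Plants grew in a greenhouse at 25° C. to 30° C.; effects were scored visually 3 weeks after application.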

[4] = system: rapeseed; assay: Test Example 5: effect on crop by foliage application, plastic box (symbol g); settings: 320 g/ha, 3 weeks after application
In short: as §1

[5] = system: Echinochloa oryzacola Vasing.; assay: Test Example 2: herbicidal activity, application during weed generation in submerged conditions (symbol A); settings: Table 23; application herbicide amount 320 g/ha; grade 0-5 by criteria of Test Example 1
In short: (§4)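 Submerged alluvial soil (4 cm) sown with mixed seed; greenhouse 25–30° C. 1–2 leaf: diluted emulsion onto water surface, preset dose. Visual score, 3 wk.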

[6] = system: Alopecurus myosuroides; assay: Test Example 4: herbicidal effect by soil treatment (symbol J); settings: for J (Alopecurus myosuroides) herbicidal effect grade: application herbicide amount 320 g/ha; for J: Alopecurus myosuroides, herbicidal effect grade: 320 g/ha
In short: as §3

[7] = system: Monochoria vaginalis; assay: Test Example 1: herbicidal activity, application before weed generation in submerged conditions (symbol C); settings: application herbicide amount 320 g/ha
In short: (§5)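 Flooded alluvial soil (4 cm water) was mixed-sown with the three weed species, and 2.5-leaf rice seedlings were transplanted. On sowing day, a water-diluted emulsion at a predetermined rate was applied to the water surface. After 3 weeks in a 25–30 °C greenhouse, effect was scored 0–5.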

[8] = system: Digitaria ciliaris; assay: Test Example 4: herbicidal effect by soil treatment (symbol F); settings: for F (Digitaria ciliaris) herbicidal effect grade: application herbicide amount 320 g/ha; for F: Digitaria ciliaris, herbicidal effect grade: 320 g/ha
In short: as §3

[9] = system: Galium spurium; assay: Test Example 4: herbicidal effect by soil treatment (symbol Q); settings: for Q (Galium spurium) herbicidal effect grade: application herbicide amount 320 g/ha; for Q: Galium spurium, herbicidal effect grade: 320 g/ha
In short: as §3

[10] = system: Avena fatua; assay: Test Example 4: herbicidal effect by soil treatment (symbol I); settings: for I (Avena fatua) herbicidal effect grade: application herbicide amount 320 g/ha; for I: Avena fatua, herbicidal effect grade: 320 g/ha
In short: as §3

[11] = system: Scirpus juncoides; assay: Test Example 2: herbicidal activity, application during weed generation in submerged conditions (symbol B); settings: Table 23; application herbicide amount 320 g/ha; grade 0-5 by criteria of Test Example 1
In short: as §4

[12] = system: rice; assay: Test Example 4: effect on crop by soil treatment (symbol b); settings: for b (directly sowed rice plant) effect on crop grade: application herbicide amount 320 g/ha; for b: directly sowed rice plant, effect grade on crop: 320 g/ha
In short: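 Seeds were sown in spots on sterilized diluvial soil in a plastic box and covered with about 1.5 cm of soil. Plants were then grown in a greenhouse at 25° C. to 30° C.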

[13] = system: Monochoria vaginalis; assay: Test Example 2: herbicidal activity, application during weed generation in submerged conditions (symbol C); settings: Table 23; application herbicide amount 320 g/ha; grade 0-5 by criteria of Test Example 1
In short: as §4

[14] = system: Amaranthus retroflexus; assay: Test Example 5: herbicidal effect by foliage application, plastic box (symbol N); settings: 320 g/ha, 3 weeks after application
In short: as §2

[15] = system: Abutilon theophrasti; assay: Test Example 5: herbicidal effect by foliage application, plastic box (symbol M); settings: 320 g/ha, 3 weeks after application
In short: as §2

[16] = system: Echinochloa oryzacola Vasing.; assay: Test Example 1: herbicidal activity, application before weed generation in submerged conditions (symbol A); settings: application herbicide amount 320 g/ha
In short: as §5

Row | Structure (SMILES) | f: beet, effect on crop grade [1] | H: Echinochloa crus-galli var. crus-galli, herbicidal effect grade [2] | M (Abutilon theophrasti) herbicidal effect grade [3] | g: rapeseed, effect on crop grade [4] | Herbicidal effect grade, A: Echinochloa oryzacola Vasing. [5] | J (Alopecurus myosuroides) herbicidal effect grade [6] | Herbicidal effect grade, C: Monochoria vaginalis [7] | F (Digitaria ciliaris) herbicidal effect grade [8] | Q (Galium spurium) herbicidal effect grade [9] | I (Avena fatua) herbicidal effect grade [10] | Herbicidal effect grade, B: Scirpus juncoides [11] | b (directly sowed rice plant) effect on crop grade [12] | Herbicidal effect grade, C: Monochoria vaginalis [13] | N: Amaranthus retroflexus, herbicidal effect grade [14] | M: Abutilon theophrasti, herbicidal effect grade [15] | Herbicidal effect grade, A: Echinochloa oryzacola Vasing. [16] | f: beet, effect on crop (criteria 0-5) [1] | H: Echinochloa crus-galli var. crus-galli, herbicidal effect (criteria 0-5) [2] | M: Abutilon theophrasti, herbicidal effect grade [3] | g: rapeseed, effect on crop (criteria 0-5) [4] | further results
1 | CC(CC1CC(O)=C(c2c(C)cc(C)cc2C)C1=O)=NOCC(C)O (stereo not shown) [1-027] | 0 (Herbicidal ratio of 5% or lower (almost no effect)) | 5 (Herbicidal ratio of 90% or more (almost completely withered)) | 0 (Herbicidal ratio of 5% or lower (almost no effect)) | 4 (Herbicidal ratio of 70% or higher and lower than 90%) | 4 (Herbicidal ratio of 70% or higher and lower than 90%) | 5 (Herbicidal ratio of 90% or more (almost completely withered)) | 3 (Herbicidal ratio of 40% or higher and lower than 70%) | 5 (Herbicidal ratio of 90% or more (almost completely withered)) | 0 (Herbicidal ratio of 5% or lower (almost no effect)) | 4 (Herbicidal ratio of 70% or higher and lower than 90%) | 3 (Herbicidal ratio of 40% or higher and lower than 70%) | 5 (Herbicidal ratio of 90% or more (almost completely withered)) | 0 (Herbicidal ratio of 5% or lower (almost no effect)) | 0 (Herbicidal ratio of 5% or lower (almost no effect)) | 2 (Herbicidal ratio of 20% or higher and lower than 40%) | 4 (Herbicidal ratio of 70% or higher and lower than 90%) |  |  |  |  | 
2 | CON=C(C)CC1CC(OC(=O)C(C)Oc2ccc(Oc3cnc4cc(Cl)ccc4n3)cc2)=C(c2c(C)cc(C)cc2C)C1=O (stereo not shown) [1-087] |  |  |  |  | 5 (Herbicidal ratio of 90% or more (almost completely withered)) |  | 1 (Herbicidal ratio of 5% or higher and lower than 20%) |  |  |  | 5 (Herbicidal ratio of 90% or more (almost completely withered)) |  | 1 (Herbicidal ratio of 5% or higher and lower than 20%) |  |  | 5 (Herbicidal ratio of 90% or more (almost completely withered)) | 4 (Herbicidal ratio of 70% or higher and lower than 90%) | 5 (Herbicidal ratio of 90% or more (almost completely withered)) | 5 (Herbicidal ratio of 90% or more (almost completely withered)) | 4 (Herbicidal ratio of 70% or higher and lower than 90%) | J: Alopecurus myosuroides, herbicidal effect grade [6]: 5 (Herbicidal ratio of 90% or more (almost completely withered)); F: Digitaria ciliaris, herbicidal effect grade [8]: 5 (Herbicidal ratio of 90% or more (almost completely withered)); Q: Galium spurium, herbicidal effect grade [9]: 0 (Herbicidal ratio of 5% or lower (almost no effect)); I: Avena fatua, herbicidal effect grade [10]: 3 (Herbicidal ratio of 40% or higher and lower than 70%); b: directly sowed rice plant, effect grade on crop [12]: 5 (Herbicidal ratio of 90% or more (almost completely withered)); N: Amaranthus retroflexus, herbicidal effect (criteria 0-5) [14]: 4 (Herbicidal ratio of 70% or higher and lower than 90%); M: Abutilon theophrasti, herbicidal effect (criteria 0-5) [15]: 5 (Herbicidal ratio of 90% or more (almost completely withered))
3 | CON=C(C)CC1CC(OC(=O)C=Cc2ccco2)=C(c2c(C)cc(C)cc2C)C1=O (stereo not shown) [1-091] |  |  |  |  | 5 (Herbicidal ratio of 90% or more (almost completely withered)) |  | 0 (Herbicidal ratio of 5% or lower (almost no effect)) |  |  |  | 3 (Herbicidal ratio of 40% or higher and lower than 70%) |  | 0 (Herbicidal ratio of 5% or lower (almost no effect)) |  |  | 5 (Herbicidal ratio of 90% or more (almost completely withered)) | 0 (Herbicidal ratio of 5% or lower (almost no effect)) | 5 (Herbicidal ratio of 90% or more (almost completely withered)) | 1 (Herbicidal ratio of 5% or higher and lower than 20%) | 4 (Herbicidal ratio of 70% or higher and lower than 90%) | J: Alopecurus myosuroides, herbicidal effect grade [6]: 5 (Herbicidal ratio of 90% or more (almost completely withered)); F: Digitaria ciliaris, herbicidal effect grade [8]: 5 (Herbicidal ratio of 90% or more (almost completely withered)); Q: Galium spurium, herbicidal effect grade [9]: 0 (Herbicidal ratio of 5% or lower (almost no effect)); I: Avena fatua, herbicidal effect grade [10]: 3 (Herbicidal ratio of 40% or higher and lower than 70%); b: directly sowed rice plant, effect grade on crop [12]: 5 (Herbicidal ratio of 90% or more (almost completely withered)); N: Amaranthus retroflexus, herbicidal effect (criteria 0-5) [14]: 3 (Herbicidal ratio of 40% or higher and lower than 70%); M: Abutilon theophrasti, herbicidal effect (criteria 0-5) [15]: 4 (Herbicidal ratio of 70% or higher and lower than 90%)
4 | CON=C(CC1CC(O)=C(c2c(C)cc(C)cc2C)C1=O)C1CC1 (stereo not shown) [1-046] | 0 (Herbicidal ratio of 5% or lower (almost no effect)) | 5 (Herbicidal ratio of 90% or more (almost completely withered)) | 4 (Herbicidal ratio of 70% or higher and lower than 90%) | 4 (Herbicidal ratio of 70% or higher and lower than 90%) | 5 (Herbicidal ratio of 90% or more (almost completely withered)) | 5 (Herbicidal ratio of 90% or more (almost completely withered)) | 4 (Herbicidal ratio of 70% or higher and lower than 90%) | 5 (Herbicidal ratio of 90% or more (almost completely withered)) | 0 (Herbicidal ratio of 5% or lower (almost no effect)) | 5 (Herbicidal ratio of 90% or more (almost completely withered)) | 5 (Herbicidal ratio of 90% or more (almost completely withered)) | 5 (Herbicidal ratio of 90% or more (almost completely withered)) | 3 (Herbicidal ratio of 40% or higher and lower than 70%) | 2 (Herbicidal ratio of 20% or higher and lower than 40%) | 3 (Herbicidal ratio of 40% or higher and lower than 70%) | 5 (Herbicidal ratio of 90% or more (almost completely withered)) |  |  |  |  | 

Reference: patent US11000033B2, “Ketone or oxime compound, and herbicide” (NISSAN CHEMICAL CORPORATION, priority 2014, dated 2021)
